One data set concerns the target human mGluR3 (hmGluR3) (Homo sapiens, UniProt Q14832). In words: mGluR3 negative allosteric modulator activity. The format is cell-based.
The target of data set [1] is T1, human mGluR2 (hmGluR2) transiently over-expressed in HEK-293 cells (Homo sapiens, UniProt Q14416).
T1 construct: expressed in transfected cells; host or cells: HEK-293 cells, transient co-transfection by electroporation
In words: Human mGluR2 negative allosteric modulator evaluation using Ca++ functional assay (agonist and NAM activity). The format is cell-based. Particulars: hmGluR2 in HEK-293 cells, EC80 glutamate, Fluo4AM calcium readout; read-out: mGluR2 negative allosteric modulator activity IC50. The essentials: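 Compound alone (agonist mode) was followed on the same plate by EC80 glutamate (NAM mode), with fluorescence read 60 s. Eight-point curves, variable-slope fit, duplicate, two independent runs.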

This passage reports IC50 and melting point results from patent US9434734B2, “Substituted pyrazoloquinazolinones and pyrroloquinazolinones as allosteric modulators of group II metabotropic glutamate receptors” (Domain Therapeutics, priority 2012, dated 2016).

T1 sequence (Q14416 19-872): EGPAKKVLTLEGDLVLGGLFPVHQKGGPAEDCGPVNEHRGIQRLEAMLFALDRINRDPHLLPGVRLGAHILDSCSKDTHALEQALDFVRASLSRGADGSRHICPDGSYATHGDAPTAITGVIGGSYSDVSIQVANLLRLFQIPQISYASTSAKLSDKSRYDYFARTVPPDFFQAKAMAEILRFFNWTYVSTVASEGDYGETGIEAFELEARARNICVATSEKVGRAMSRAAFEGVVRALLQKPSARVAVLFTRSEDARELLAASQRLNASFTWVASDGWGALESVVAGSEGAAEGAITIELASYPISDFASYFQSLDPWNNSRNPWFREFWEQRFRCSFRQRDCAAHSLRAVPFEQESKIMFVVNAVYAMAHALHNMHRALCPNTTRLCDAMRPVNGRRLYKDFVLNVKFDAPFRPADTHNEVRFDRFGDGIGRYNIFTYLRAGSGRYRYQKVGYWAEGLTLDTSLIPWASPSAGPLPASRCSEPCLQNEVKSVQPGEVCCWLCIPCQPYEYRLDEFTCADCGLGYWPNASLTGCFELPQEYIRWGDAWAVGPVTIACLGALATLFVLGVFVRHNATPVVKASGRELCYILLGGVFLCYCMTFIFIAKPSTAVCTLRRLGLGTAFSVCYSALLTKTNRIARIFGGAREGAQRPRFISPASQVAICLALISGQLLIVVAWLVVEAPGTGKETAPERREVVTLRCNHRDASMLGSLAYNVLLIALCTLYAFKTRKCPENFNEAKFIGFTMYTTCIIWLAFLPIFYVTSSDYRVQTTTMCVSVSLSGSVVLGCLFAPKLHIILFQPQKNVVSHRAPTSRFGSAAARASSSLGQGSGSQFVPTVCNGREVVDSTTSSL
Chain of human mGluR3 (hmGluR3) (Q14832 23-879): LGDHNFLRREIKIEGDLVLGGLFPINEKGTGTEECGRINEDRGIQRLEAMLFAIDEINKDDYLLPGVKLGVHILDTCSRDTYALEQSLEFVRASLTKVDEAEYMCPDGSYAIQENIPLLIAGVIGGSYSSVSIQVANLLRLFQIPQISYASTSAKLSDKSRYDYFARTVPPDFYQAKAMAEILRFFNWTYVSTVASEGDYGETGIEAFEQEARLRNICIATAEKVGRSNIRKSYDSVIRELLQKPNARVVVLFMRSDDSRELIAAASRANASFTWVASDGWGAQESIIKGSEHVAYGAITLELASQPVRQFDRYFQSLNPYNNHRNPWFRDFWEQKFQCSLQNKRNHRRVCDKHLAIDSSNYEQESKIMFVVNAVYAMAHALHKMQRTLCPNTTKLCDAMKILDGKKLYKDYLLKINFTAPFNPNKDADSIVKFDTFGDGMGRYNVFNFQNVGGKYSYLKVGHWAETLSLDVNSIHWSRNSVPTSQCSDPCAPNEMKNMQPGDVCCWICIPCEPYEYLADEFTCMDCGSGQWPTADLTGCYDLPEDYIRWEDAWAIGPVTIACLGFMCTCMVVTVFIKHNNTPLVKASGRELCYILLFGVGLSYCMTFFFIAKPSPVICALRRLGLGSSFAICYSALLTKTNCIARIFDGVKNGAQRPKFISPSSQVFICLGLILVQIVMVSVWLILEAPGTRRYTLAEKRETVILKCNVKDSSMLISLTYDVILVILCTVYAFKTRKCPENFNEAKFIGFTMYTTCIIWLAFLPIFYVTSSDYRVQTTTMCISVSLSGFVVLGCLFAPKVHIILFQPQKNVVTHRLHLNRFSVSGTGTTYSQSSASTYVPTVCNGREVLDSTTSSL

Regarding `Cn1c(=O)c2ccc(-c3cccc(C(=O)O)c3)cc2n2nc(-c3ccccc3)cc12` [Example 34, 3-(4-Methyl-5-oxo-2-phenyl-4,5-dihydro-pyrazolo[1,5-a]quinazolin-8-yl)-benzoic Acid], the melting point is greater than 250 °C. On human mGluR3 (hmGluR3), this compound came in with a half-inhibitory concentration (IC50) of less than 1 µM. Further, the concentration for half-maximal inhibition (IC50) in data set [1] was less than 1 µM.
Consider `CCn1c(=O)c2ccc(-c3ccc(N)nc3)cc2n2nc(C3CCCC3)cc12.Cl` [Example 69, 8-(6-Amino-pyridin-3-yl)-2-cyclopentyl-4-ethyl-4H-pyrazolo[1,5-a]quinazolin-5-one], for which the melting point was greater than 250 °C. Besides, the IC50 against human mGluR3 (hmGluR3) is less than 1 µM. For the same compound, the half-maximal inhibitory concentration (IC50) in data set [1] was less than 1 µM.
`Cc1n[nH]c(C)c1-c1ccc2c(=O)n(C)c3cc(-c4ccnc(C(F)(F)F)c4)nn3c2c1` [Example 145, 8-(3,5-Dimethyl-1H-pyrazol-4-yl)-4-methyl-2-(2-trifluoromethyl-pyridin-4-yl)-4H-pyrazolo[1,5-a]quinazolin-5-one] showed a melting point greater than 250 °C. Besides, in data set [1], the concentration for half-maximal inhibition (IC50) is less than 1 µM.
Compound `Cc1cc(-c2cc3n(C)c(=O)c4ccc(-c5c(C)n[nH]c5C)cc4n3n2)cc(C)n1.Cl` [Example 146, 8-(3,5-Dimethyl-1H-pyrazol-4-yl)-2-(2,6-dimethyl-pyridin-4-yl)-4-methyl-4H-pyrazolo[1,5-a]quinazolin-5-one] had a melting point greater than 250 °C. Besides, the IC50 in data set [1] is less than 1 µM.
The like results for `Cc1cc(-c2cc3n(C)c(=O)c4ccc(-c5c[nH]nc5C(F)(F)F)cc4n3n2)cc(C)n1.Cl` [Example 147, 2-(2,6-Dimethyl-pyridin-4-yl)-4-methyl-8-(3-trifluoromethyl-1H-pyrazol-4-yl)-4H-pyrazolo[1,5-a]quinazolin-5-one] were, in that order, greater than 250 °C and less than 1 µM.
